≈ marks a conversion by molar mass, not a printed value.
What was measured:
[1] = tested on: Gram-positive bacteria; assay: antimicrobial activity in vitro (summary in words); type: cell-based; conditions: from Tables 2 and 3
Description: (§1) Antimicrobial activities of the compounds of the present invention were determined by measuring minimum inhibitory concentration (MIC). Minimum inhibitory concentration was determined by the agar plate dilution method in the following manner.
(§2) Test strains were subjected to seed culture using Sensitivity test broth (STB, Nissui Pharmaceutical) except that the strains belonging to the genus Streptococcus, Branhamella and Haemophilus were cultured on blood agar plate. A 5 μl portion of cell suspension of the test strains having about 10^6 CFU/ml was inoculated into Sensitivity disk agar (SDA, Nissui Pharmaceutical) supplemented with 5% horse blood and incubated at 37° C. for 20 hours. Then, MIC was measured. For comparison, MDM and leucomycin A7 (LM-A7) was also tested.

[2] = tested on: test strains; assay: antimicrobial activity in vitro, comparison in words; type: cell-based; conditions: for antimicrobial activity in vitro compared with MOM: data are not shown; for antimicrobial activity compared with LM-A7: except on Haemophilus influenzae, Tables 2 and 3
Description: as §1, §2

[3] = tested on: S. pneumoniae IP692; assay: MIC, agar plate dilution method; type: cell-based; conditions: Streptococcus pneumoniae; S. pneumoniae IP692; 37° C., 20 hours; read-out: Antimicrobial activity (MIC)
Description: as §1, §2

[4] = tested on: H. influenzae Type b; assay: MIC, agar plate dilution method; type: cell-based; conditions: Haemophilus influenzae; H. influenzae Type b; 37° C., 20 hours; read-out: Antimicrobial activity (MIC)
Description: as §1, §2

[5] = tested on: S. aureus MS15026; assay: MIC, agar plate dilution method; type: cell-based; conditions: Staphylococcus aureus, 37° C., 20 hours, read-out: Antimicrobial activity (MIC)
Description: as §1, §2

[6] = tested on: M. luteus ATCC9341; assay: MIC, agar plate dilution method; type: cell-based; conditions: Micrococcus luteus; M. luteus ATCC9341; 37° C., 20 hours; read-out: Antimicrobial activity (MIC)
Description: as §1, §2

[7] = tested on: S. epidermidis ATCC14990; assay: MIC, agar plate dilution method; type: cell-based; conditions: Staphylococcus epidermidis, 37° C., 20 hours, read-out: Antimicrobial activity (MIC)
Description: as §1, §2

[8] = tested on: S. aureus MS15027; assay: MIC, agar plate dilution method; type: cell-based; conditions: Staphylococcus aureus, 37° C., 20 hours, read-out: Antimicrobial activity (MIC)
Description: as §1, §2

[9] = tested on: S. aureus M126; assay: MIC, agar plate dilution method; type: cell-based; conditions: Staphylococcus aureus; S. aureus M126; 37° C., 20 hours; read-out: Antimicrobial activity (MIC)
Description: as §1, §2

[10] = tested on: S. aureus MS15009/pMS99; assay: MIC, agar plate dilution method; type: cell-based; conditions: Staphylococcus aureus, MS15009/PMS99, 20 h, read-out: Antimicrobial activity (MIC)
Description: as §1, §2

[11] = tested on: S. aureus M133; assay: MIC, agar plate dilution method; type: cell-based; conditions: Staphylococcus aureus, 37° C., 20 hours, read-out: Antimicrobial activity (MIC)
Description: as §1, §2

[12] = tested on: E. faecalis W-73; assay: MIC, agar plate dilution method; type: cell-based; conditions: Enterococcus faecalis, W73; E. faecalis W-73; 37° C., 20 hours; read-out: Antimicrobial activity (MIC)
Description: as §1, §2

[13] = tested on: K. pneumoniae PC1602; assay: MIC, agar plate dilution method; type: cell-based; conditions: Klebsiella pneumoniae, 37° C., 20 hours, read-out: Antimicrobial activity (MIC)
Description: as §1, §2

[14] = tested on: S. Pyogenes Cook; assay: MIC, agar plate dilution method; type: cell-based; conditions: Streptococcus pyogenes, 37° C., 20 hours, read-out: Antimicrobial activity (MIC)
Description: as §1, §2

[15] = tested on: B. catarrhalis W-0506; assay: MIC, agar plate dilution method; type: cell-based; conditions: Moraxella catarrhalis, W0506, 37° C., 20 hours, read-out: Antimicrobial activity (MIC)
Description: as §1, §2

[16] = tested on: B. catarrhalis W-0500; assay: MIC, agar plate dilution method; type: cell-based; conditions: Moraxella catarrhalis, W0500, 37° C., 20 hours, read-out: Antimicrobial activity (MIC)
Description: as §1, §2

[17] = tested on: E. coli NIHJ JC-2; assay: MIC, agar plate dilution method; type: cell-based; conditions: Escherichia coli, NIHJJC2; E. coli NIHJ JC-2; 37° C., 20 hours; read-out: Antimicrobial activity (MIC)
Description: as §1, §2

[18] = tested on: S. aureus MS15009/pMS98; assay: MIC, agar plate dilution method; type: cell-based; conditions: Staphylococcus aureus, MS15009/PMS98, 20 h, read-out: Antimicrobial activity (MIC)
Description: as §1, §2

[19] = tested on: S. Pneumoniae Type 1; assay: MIC, agar plate dilution method; type: cell-based; conditions: Streptococcus pneumoniae; S. Pneumoniae Type 1; 37° C., 20 hours; read-out: Antimicrobial activity (MIC)
Description: as §1, §2

[20] = tested on: H. influenzae 9334; assay: MIC, agar plate dilution method; type: cell-based; conditions: Haemophilus influenzae; H. influenzae 9334; 37° C., 20 hours; read-out: Antimicrobial activity (MIC)
Description: as §1, §2

[21] = tested on: S. aureus 209P JC-1; assay: MIC, agar plate dilution method; type: cell-based; conditions: Staphylococcus aureus; S. aureus 209P JC-1; 37° C., 20 hours; read-out: Antimicrobial activity (MIC)
Description: as §1, §2

[22] = concentration in serum after oral administration to mice, bioassay; type: in vivo, mice (Jcl:ICR)
Description: The compound (3) was mixed with a 0.2% solution of carboxymethylcellulose to give a concentration of 4 mg/ml and a 1 ml portion of the resulting emulsion was orally administered to 4-week-old male Jcl:ICR mice. Blood was collected from armpit of the mice 30, 60, 120, 240 and 360 minutes after the administration of the test compound (n=2). The collected blood was allowed to stand at room temperature for about 2 hours and centrifuged for 20 minutes with a centrifuge (KUBOTA KS-5000P) to obtain serum. To the serum was added an equivalent volume of 50% CH3 CN-50 mM phosphate (1:1 by volume) buffer (pH 7.0). The resulting mixture served as a serum sample. The concentration of the test compound in the serum sample was measured by the following bioassay method.
One hundred […] of the serum sample was poured into a hole made on a test plate containing 40 ml of MRAPJ medium (6 g/l peptone, 3 g/l yeast extract, 1.5 g/l meat extract, 1 g/l glucose and 15 g/l agar, pH 6.5) supplemented with a solution of M. Iuteus ATCC9341 (1%) and incubated at 32° C. for 18 hours and MIC was measured based on the calibration curve. MOM, MDM and RKM were also tested for comparison. […] Thus a long-pending problem of "low concentration in serum" of 16-membered macrolide antibiotics has been solved. […] Thus this compound is considered as a macrolide derivative showing new pharmacokinetics.
Further, a pharmacokinetics test on the compound (12) of the present invention is carried out in the same manner as described above. Namely, 200 mg/kg of the compound (12) is orally administered to mice and the concentration of this compound in the serum is determined by a bioassay method with the use of M. luteus as a test strain. […] The disadvantage of 16-membered ring macrolide antibiotics, which has been pointed out for a long time, has been thus overcome.

Row | SMILES | antimicrobial activity on Gram-positive bacteria [1] | antimicrobial activity in vitro compared with MOM [2] | antimicrobial activity compared with LM-A7 [2] | MIC [3] [µg/mL] | MIC [4] [µg/mL] | MIC [5] [µg/mL] | MIC [6] [µg/mL] | MIC [7] [µg/mL] | MIC [8] [µg/mL] | MIC [9] [µg/mL] | MIC [10] [µg/mL] | MIC [11] [µg/mL] | MIC [12] [µg/mL] | MIC [13] [µg/mL] | MIC [14] [µg/mL] | MIC [15] [µg/mL] | MIC [16] [µg/mL] | MIC [17] [µg/mL] | MIC [18] [µg/mL] | MIC [19] [µg/mL] | other results
1 | CCCCO[C@H]1[C@H](C)O[C@@H](O[C@H]2[C@H](N(C)C)[C@@H](O)[C@H](O[C@H]3[C@@H](CC=O)C[C@@H](C)[C@@H](O)/C=C/C=C/C[C@@H](C)OC(=O)C[C@@H](O)[C@@H]3OC)O[C@@H]2C)C[C@@]1(C)OC [(10)] | strong antimicrobial activity | clearly much superior to MOM | comparable or superior | 0.1 (≈ 0.13 µM) | 12.5 (≈ 16.2 µM) | > 100 | 0.05 (≈ 0.0648 µM) | 0.39 (≈ 0.505 µM) | 0.39 (≈ 0.505 µM) | > 100 | > 100 | 0.39 (≈ 0.505 µM) | 0.78 (≈ 1.01 µM) | > 100 | 0.1 (≈ 0.13 µM) | 1.56 (≈ 2.02 µM) | 0.78 (≈ 1.01 µM) | > 100 | 0.39 (≈ 0.505 µM) | 0.2 (≈ 0.259 µM) | MIC [20]: 3.13 µg/mL (≈ 4.05 µM); MIC [21]: 0.1 µg/mL (≈ 0.13 µM)
2 | CO[C@@H]1[C@@H](O[C@@H]2O[C@H](C)[C@@H](O[C@H]3C[C@@](C)(OC)[C@@H](OCCC(C)C)[C@H](C)O3)[C@H](N(C)C)[C@H]2O)[C@@H](CC=O)C[C@@H](C)[C@@H](O)/C=C/C=C/C[C@@H](C)OC(=O)C[C@H]1O [(12)] | strong antimicrobial activity | clearly much superior to MOM | comparable or superior | 0.1 (≈ 0.127 µM) | 6.25 (≈ 7.95 µM) | > 100 | 0.05 (≈ 0.0636 µM) | 0.39 (≈ 0.496 µM) | 0.39 (≈ 0.496 µM) | > 100 | > 100 | 0.39 (≈ 0.496 µM) | 0.39 (≈ 0.496 µM) | > 100 | 0.05 (≈ 0.0636 µM) | 0.39 (≈ 0.496 µM) | 0.39 (≈ 0.496 µM) | > 100 | 0.2 (≈ 0.254 µM) | 0.1 (≈ 0.127 µM) | Cmax ([22]; mouse, serum, 200 mg/kg, M. luteus bioassay, read-out: maximum concentration in the serum): 11500 ng/mL; maximum concentration in the serum, comparison in words ([22]; versus clarythromycin (CAM) or other 16-membered macrolides): comparable to that of CAM; MIC [20]: 1.56 µg/mL (≈ 1.98 µM); MIC [21]: 0.1 µg/mL (≈ 0.127 µM)
3 | CCCCCO[C@H]1[C@H](C)O[C@@H](O[C@H]2[C@H](N(C)C)[C@@H](O)[C@H](O[C@H]3[C@@H](CC=O)C[C@@H](C)[C@@H](O)/C=C/C=C/C[C@@H](C)OC(=O)C[C@@H](O)[C@@H]3OC)O[C@@H]2C)C[C@@]1(C)OC [(11)] | strong antimicrobial activity | clearly much superior to MOM | comparable or superior | 0.05 (≈ 0.0636 µM) | 12.5 (≈ 15.9 µM) | > 100 | 0.05 (≈ 0.0636 µM) | 0.39 (≈ 0.496 µM) | 0.39 (≈ 0.496 µM) | > 100 | > 100 | 0.39 (≈ 0.496 µM) | 0.39 (≈ 0.496 µM) | > 100 | 0.1 (≈ 0.127 µM) | 0.78 (≈ 0.992 µM) | 0.39 (≈ 0.496 µM) | > 100 | 0.39 (≈ 0.496 µM) | 0.2 (≈ 0.254 µM) | MIC [20]: 3.13 µg/mL (≈ 3.98 µM); MIC [21]: 0.1 µg/mL (≈ 0.127 µM)
4 | CO[C@@H]1[C@@H](O[C@@H]2O[C@H](C)[C@@H](O[C@H]3C[C@@](C)(OC)[C@@H](OCc4ccccc4)[C@H](C)O3)[C@H](N(C)C)[C@H]2O)[C@@H](CC=O)C[C@@H](C)[C@@H](O)/C=C/C=C/C[C@@H](C)OC(=O)C[C@H]1O [(16)] | strong antimicrobial activity | clearly much superior to MOM | comparable or superior | 0.1 (≈ 0.124 µM) | 6.25 (≈ 7.75 µM) | > 100 | 0.05 (≈ 0.062 µM) | 0.2 (≈ 0.248 µM) | 0.2 (≈ 0.248 µM) | > 100 | > 100 | 0.39 (≈ 0.484 µM) | 0.39 (≈ 0.484 µM) | > 100 | 0.1 (≈ 0.124 µM) | 0.78 (≈ 0.968 µM) | 0.78 (≈ 0.968 µM) | > 100 | 0.2 (≈ 0.248 µM) | 0.1 (≈ 0.124 µM) | MIC [20]: 3.13 µg/mL (≈ 3.88 µM); MIC [21]: 0.1 µg/mL (≈ 0.124 µM)

Source: patent US5407918A, “16-membered macrolide derivatives and process for producing the same” (Meiji Seika Kaisha, Ltd., priority 1992, dated 1995)
